Reference: ChEMBL document CHEMBL1641415, “Discovery of a novel hybrid from finasteride and epristeride as 5α-reductase inhibitor” (Bioorg Med Chem Lett, 2011)

Tests used:
[1] = target: T1, 3-oxo-5-alpha-steroid 4-dehydrogenase 2 (Homo sapiens, UniProt P31213); assay: Inhibition of human prostate 5alpha-reductase type 2 assessed as formation dihydrotestosterone from [4-14C] testosterone; format: tissue-based, Prostate gland
T1 sequence (P31213 whole entry): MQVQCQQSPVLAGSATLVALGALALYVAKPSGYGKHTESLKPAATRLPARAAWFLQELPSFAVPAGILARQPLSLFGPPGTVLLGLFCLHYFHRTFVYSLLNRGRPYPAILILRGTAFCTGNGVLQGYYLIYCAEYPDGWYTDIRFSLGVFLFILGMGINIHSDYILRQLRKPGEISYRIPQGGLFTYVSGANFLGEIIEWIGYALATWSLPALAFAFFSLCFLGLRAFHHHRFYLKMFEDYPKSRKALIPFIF

[2] = target: T2, 3-oxo-5-alpha-steroid 4-dehydrogenase 2 (Homo sapiens) (UniProt P31213); assay: Inhibition of human prostate 5alpha-reductase type 2 assessed as formation dihydrotestosterone from [4-14C] testosterone relative to finasteride; details: Prostate gland
T2 sequence (whole entry): T1 sequence (P31213 whole entry)

| IC50 [1] | Ratio [2] | Structure (SMILES) |
| --- | --- | --- |
| 35 nM | – | CC(C)(C)NC(=O)[C@H]1CC[C@H]2[C@@H]3CC[C@H]4NC(=O)C=C[C@]4(C)[C@H]3CC[C@]12C [FINASTERIDE] |
| > 1000 nM | < 0.055 | C[C@]12CC[C@@H]3c4ccc(O)cc4CC[C@H]3[C@@H]1CCC(=O)N2 |
| 71 nM | 0.49 | C[C@]12CCC(C(=O)O)=CC1=CC[C@@H]1[C@@H]2CC[C@]2(C)NC(=O)CC[C@@H]12 |
| > 1000 nM | < 0.055 | C[C@]12CC[C@@H]3c4ccc(OS(=O)(=O)O)cc4CC[C@H]3[C@@H]1CCC(=O)N2 |
